{
  "source": "patent US20110201679A1",
  "about": "“Use of Tocotrienols for Elevating IKBKAP Gene Expression and Treating Neurodegenerative Diseases or Disorders” (priority 2004, published 2011)",
  "assay_type_in_all_cases": "cell-based, human",
  "key": {"[1]": {"system": "IKAP transcript", "assay": "Real-time RT-PCR analysis of IKAP RNA in FD-derived and normal fibroblast cells", "details": "for effect on cellular levels of IKAP transcripts: 48 h, 25 and 2.5 μg/ml", "procedure": "In order to identify agents that could modulate the level of the wild type IKAP transcript produced in FD-derived cells, either by increasing transcription or modulating splicing, FD-derived fibroblast cells (GM00850) were treated with a variety of biological agents. RNA was isolated from the treated cells and was subjected to real-time RT-PCR analysis using primers specific for the wild-type IKAP transcript. More specifically, FD-derived fibroblast cells, seeded in 96-well plates at a concentration of 4000 cells/well for at least one day prior to treatment, were treated in triplicate for approximately 48 h unless noted otherwise. After treatment, the cells were washed once with PBS and then lysed in 50 μl of Cell-to-cDNA lysis buffer (Ambion) at 75° C. for 12 min. After one freeze-thaw cycle, 4 μl of lysate was used in 20 μl RT-PCRs. The Quantitect SYBR Green RT-PCR Kit (Qiagen) was used for real-time RT-PCR analysis of the relative quantities of the exon 20-containing transcript (wild-type), the exon 20-lacking transcript (mutant), as well as an exon 34-35-containing transcript that is unaffected by the FD-causing mutation (total). An ABI PRISM 7000 Sequence Detection System (Applied Biosystems), programmed as follows, was used to perform the real-time RT-PCR and analysis: 50° C. for 30 min and 95° C. for 15 min for one cycle, followed by 40 cycles of 94° C. for 15 s, 57-60° C. for 30 s, and 72° C. for 30 s. To present relative amounts of PCR product obtained, results were expressed as changes in the threshold cycle (ΔCT) compared to untreated cells. The threshold cycle refers to the PCR cycle at which the fluorescence of the PCR is increased to a calculated level above background. A change of 1.0 in CT, assuming 100% PCR efficiency, would reflect a twofold change in the starting amount of the RNA template that was amplified.\nTo control for the amount of RNA present in the samples, RT-PCR amplification of ribosomal 18S RNA was performed on all cell lysates. […] For this analysis, TaqMan Ribosomal RNA Control Reagents were used with the TaqMan EZ RT-PCR Kit (Applied Biosystems) as per the manufacturer's protocol.\nTo characterize the kinetics of the δ-tocotrienol-mediated accumulation of the IKAP transcript, FD-derived (GM00850 and GM04663) and normal (GM02912) fibroblast cells were exposed to 12.5 μg/ml of δ-tocotrienol for periods up to 48 h and the amount of the IKAP-encoding transcripts was determined by real-time RT-PCR, as described above.\nTo evaluate the IKAP mRNA-inducing ability of other molecules in the vitamin E family that are related to […], GM00850, GM04663, and GM02912 cells were incubated in the absence or presence of 25 and 2.5 μg/ml of either α, β, γ, or δ tocopherols or tocotrienols.\nAs described above, α, β, γ or δ tocopherol alone had no impact on IKAP mRNA levels when FD-derived or normal fibroblasts were treated for 48 hr. To determine if α-tocopherol in combination with tocotrienols would have an impact on IKAP mRNA levels, FD-derived GM00850 and GM04663 fibroblasts were treated for 48 hr with either 25 or 12.5 μg/mL of a mixture of α, β, γ and δ tocotrienols alone or in combination with 50 μg/mL of α-tocopherol."}, "[2]": {"system": "IKBKAP gene transcription", "assay": "Nuclear run-on transcription assay in GM04663 cells", "details": "48 h, 12.5 μg/ml, versus untreated cells", "procedure": "The δ-tocotrienol-mediated accumulation of the IKAP-encoding transcripts was either the result of an elevation in the level of gene transcription or the stabilization of this RNA. To distinguish between these possibilities, nuclear run-on transcription assays were performed on cells incubated in either the presence or absence of δ-tocotrienol. Isolation of nuclei and transcription in the presence of [α-^32P]UTP (Perkin Elmer Life Sciences) were performed essentially as described by B. Y. Rubin (J. Biol. Chem. 266: 24245-24248 (1991)). Briefly, confluent monolayers of GM04663 cells in 175 cm^2 flasks were incubated for 48 h in the presence or absence of 12.5 μg/ml δ-tocotrienol. The cells were then lysed by Dounce homogenization and the resultant nuclei were incubated with 250 μCi [α-^32P]UTP. The radiolabeled RNA was treated with DNase, purified with Trizol LS reagent (Invitrogen), and then hybridized to 5 μg of plasmid containing either a full-length cDNA encoding IKAP or a cDNA encoding GAPDH that was immobilized on Nytran Super-Charge nylon membrane (Schleicher & Schuell) using a spot-blot apparatus. The amount of radiolabeled RNA bound was detected by autoradiography and then quantitated by densitometric scanning of the X-ray film."}, "[3]": {"system": "full-length IKAP", "assay": "Western blot analysis of full-length IKAP in fibroblast cells", "details": "12.5 μg/ml", "procedure": "Western blot analysis was performed on cellular extracts prepared from δ-tocotrienol-treated FD-derived (GM00850 and GM04663) and normal (GM02912) fibroblast cells, using a monoclonal antibody generated against a peptide corresponding to exons 23-28 of IKAP that only recognize the full-length IKAP. Basically, cells treated for 48 h with 12.5 μg/ml of δ-tocotrienol were washed twice with PBS and lysed in 0.5 M Tris-HCl, pH 6.8, containing 1.4% SDS. Western blot analysis was performed essentially as described by B. Y. Rubin (Proc. Natl. Acad. Sci. USA 82: 6637-6641 (1985)). Essentially, equal amounts of protein fractionated on a 7% NuPAGE Tris-Acetate Gel (Invitrogen) were blotted onto nitrocellulose (Bio-Rad) and probed overnight with a monoclonal anti-body (BD Biosciences) directed against the carboxyl end (exons 23-28) of IKAP. The blot was then washed and probed with a goat anti-mouse antibody conjugated to alkaline phosphatase (Promega), followed by detection with Western Blue Substrate solution (Promega)."}, "[4]": {"system": "IKAP transcript", "assay": "Real-time RT-PCR analysis of wild-type IKAP RNA in LA1-55n cells", "details": "LA1-55n neuroblastoma cells, 48 h, varying concentrations", "procedure": "FIG. 7. Real-time RT-PCR analysis of wild-type IKAP RNA in LA1-55n cells. cDNA was prepared from LA1-55n cells incubated for 48 h in the absence or presence of varying concentrations of δ-tocotrienol. The relative amounts of IKAP RNA present in these cells were determined by real-time RT-PCR. The results presented represent mean values obtained in three experiments, each done in triplicate.\nThe response of the neuroblastoma-derived LA1-55n cell line, which has characteristics of sympathetic neurons (J. L. Biedler, et al., “Human Neuroblastoma Cell Differentiation, in: D. Raghavan, et al., Principles and Practice of Genitourinary Oncology, Lippincott-Raven, pp. 1053-1061, (1997); D. L. Lazarova, et al., “A Neuronal-Specific RNA-Binding Protein, is a Putative Regulator of N-myc pre-mRNA Processing/Stability in Malignant Human Neuroblasts”, Oncogene 18: 2703-2710 (1999)), to treatment with […] was examined."}, "[5]": {"details": "GM00850, GM04663 and GM02912 cells"}},
  "note": "“Also recorded” adds a separate entry of the source.",
  "data": [
    {"smiles": "CC(C)=CCC/C(C)=C/CC/C(C)=C/CC[C@]1(C)CCc2c(C)c(O)c(C)c(C)c2O1", "note": "[α-tocotrienol, α-Tocotrienol]", "values": [
      {"measurement": "effect on cellular levels of IKAP transcripts", "setting": "[1]; [5]", "result": "as much as sixfold"}
    ]},
    {"smiles": "Cc1cc(O)cc2c1O[C@](C)(CCC[C@H](C)CCC[C@H](C)CCCC(C)C)CC2", "note": "[δ-tocopherol, δ-Tocopherol]", "values": [
      {"measurement": "effect on cellular levels of IKAP transcripts", "setting": "[1]; [5]", "result": "no impact; also recorded: no effect"}
    ]},
    {"smiles": "CC(C)=CCC/C(C)=C/CC/C(C)=C/CC[C@]1(C)CCc2cc(O)cc(C)c2O1", "note": "[δ-tocotrienol, δ-Tocotrienol]", "values": [
      {"measurement": "level of wild-type IKAP transcript", "setting": "[1]; FD-derived fibroblast GM00850, about 48 h, varying concentrations", "result": "concentration-dependent elevation"},
      {"measurement": "change in threshold cycle (ΔCT) relative to untreated cells", "setting": "[1]; GM00850, 48 h, highest concentration tested", "result": 2.5},
      {"measurement": "increase in levels of truncated and wild-type IKAP transcripts", "setting": "[1]; GM00850, 48 h, highest concentration tested, relative to untreated cells", "result": "as much as a sixfold increase"},
      {"measurement": "levels of IKAP-encoding transcripts over time", "setting": "[1]; GM00850, GM04663 and GM02912 cells, 12.5 μg/ml, 24 h after start of treatment, versus untreated cells, accumulation continues through 48 h", "result": "significantly elevated levels"},
      {"measurement": "effect on cellular levels of IKAP transcripts", "setting": "[1]; [5]", "result": "as much as sixfold"},
      {"measurement": "increase in IKBKAP gene transcription", "setting": "[2]", "result": "approximately 3.5 fold"},
      {"measurement": "increase in amount of full-length IKAP produced", "setting": "[3]; FD-derived fibroblasts GM00850 and GM04663, 48 h, on average", "result": "approximate two-fold increase"},
      {"measurement": "IKAP level as percentage of the level present in untreated normal (GM02912) cells", "setting": "[3]; treated FD-derived cells GM00850 and GM04663, 48 h, untreated FD cells 26-30%", "result": "48-65%"},
      {"measurement": "increase in IKAP transcript levels", "setting": "[4]", "result": "almost a twofold increase"}
    ]},
    {"smiles": "Cc1cc(O)c(C)c2c1O[C@](C)(CCC[C@H](C)CCC[C@H](C)CCCC(C)C)CC2", "note": "[β-tocopherol, β-Tocopherol]", "values": [
      {"measurement": "effect on cellular levels of IKAP transcripts", "setting": "[1]; [5]", "result": "no impact; also recorded: no effect"}
    ]},
    {"smiles": "Cc1c(C)c2c(c(C)c1O)CC[C@@](C)(CCC[C@H](C)CCC[C@H](C)CCCC(C)C)O2", "note": "[α-tocopherol, α-Tocopherol]", "values": [
      {"measurement": "effect on cellular levels of IKAP transcripts", "setting": "[1]; [5]", "result": "no impact; also recorded: no effect"},
      {"measurement": "enhancement of tocotrienol-induced increase in IKAP mRNA", "setting": "[1]; GM00850 and GM04663, 48 hr, 50 μg/mL α-tocopherol with 25 or 12.5 μg/mL mixture of α, β, γ and δ tocotrienols, versus tocotrienol-only treated cells", "result": "≤ 40", "unit": "%"},
      {"measurement": "effect on IKAP mRNA levels, alone", "setting": "[1]; GM00850 and GM04663 fibroblasts, 48 hr, 50 μg/mL α-tocopherol alone", "result": "no effect"}
    ]},
    {"smiles": "CC(C)=CCC/C(C)=C/CC/C(C)=C/CC[C@]1(C)CCc2cc(O)c(C)c(C)c2O1", "note": "[γ-tocotrienol, γ-Tocotrienol]", "values": [
      {"measurement": "effect on cellular levels of IKAP transcripts", "setting": "[1]; [5]", "result": "as much as sixfold"}
    ]},
    {"smiles": "Cc1c(O)cc2c(c1C)O[C@](C)(CCC[C@H](C)CCC[C@H](C)CCCC(C)C)CC2", "note": "[γ-tocopherol, γ-Tocopherol]", "values": [
      {"measurement": "effect on cellular levels of IKAP transcripts", "setting": "[1]; [5]", "result": "no impact; also recorded: no effect"}
    ]},
    {"smiles": "CC(C)=CCC/C(C)=C/CC/C(C)=C/CC[C@]1(C)CCc2c(C)c(O)cc(C)c2O1", "note": "[β-tocotrienol, β-Tocotrienol]", "values": [
      {"measurement": "effect on cellular levels of IKAP transcripts", "setting": "[1]; [5]", "result": "as much as sixfold"}
    ]}
  ]
}
